One assay has as its system L1210 cells. As to the kind of experiment: L1210 in vitro cell growth inhibition. The assay is classed as cell-based. The settings on record: Mus musculus, 72 h; L1210 murine leukemia cells, three days incubation, 50% inhibition of growth; read-out: L1210 in vitro ID50. On the procedure: Another test protocol uses L1210 cells, a murine leukemia cell line, grown in RPMI 1640 supplemented with 5% fetal bovine serum and gentamicin ([…]). Drug dilutions are prepared in the appropriate solvent and 20 µl of each dilution are added to 24-well Linbro tissue culture plates, followed by the addition of 2.0 ml of cell suspension containing 3 x 10^4 cells per ml. Solvent and medium controls are included in each test. After incubation at 37°C for three days in 5% CO2, the contents of each well are removed and the cells counted in a ZBI Counter counter. Percent growth are calculated relative to the controls and the levels of drug activity are expressed as ID50 in moles per liter.

Assay [1] relates to lymphocytic leukemia P388. As to the kind of experiment: in vivo lymphocytic leukemia P388 test. The settings on record: Mus musculus, P388, ip, 120 h, mice, survival time treated/control, read-out: P388 in vivo T/C×100. On the procedure: Another test protocol is the in vivo lymphocytic leukemia P388 test. The animals used are either male or female CD2F, mice. There are six or seven animals per test group. The tumor transplant is by intraperitoneal injection of dilute ascitic fluid containing cells of lymphocytic leukemia P388. The test compounds are administered intraperitoneally once daily for five consecutive days at various doses following tumor inoculation. The animals are weighed and survivors are recorded on a regular basis for 30 days. A compound is designated "toxic" if, at a given dose, all animals died prior to four days after the first injection of drug. A ratio of survival time for treated (T)/control (C) animals is calculated. A criterion for efficacy is a ratio T/C times 100 greater than or equal to 125. See Cancer Chemotherapy Reports, Part 3, 3, 1 (1972) for a comprehensive discussion of the protocol.

A further assay relates to HCT-8 cells. As to the kind of experiment: in vitro proliferating human colon adenocarcinoma (HCA) cell screen. To be noted: 60 to 65 hours with compound, 50% inhibition of growth, read-out: HCA-4 in vitro ID50. The assay is classed as cell-based. As to the method: One test protocol is the in vitro proliferating human colon adenocarcinoma (HCA) cell screen. In this test, HCT-8 cells (HCA cell line received from Yale University) are trypsinized using trypsin-EDTA. A single cell suspension is achieved by passing the cells through a 26 gauge needle with a 20 cc syringe. A cell suspension is prepared using RPMI 1640 + 10% FCS + 50 µg/ml gentamicin sulfate with a cell concentration of approximately 30,000 cells/ml. The cell suspension is dispensed in Linbro 24-well plates; 1 ml/well. The plates are incubated for approximately 48 hours at 37°C in a 5% CO2 atmosphere. At this time test compounds are added in the appropriate concentration. Five µl of the 200 µg/ml stock solution is added to each well in a primary test. Ten ul of the appropriate dilution is added to each well for the titration test. The plates are reincubated an additional 60 to 65 hours at 37°C in a 5% C02 atmosphere. The cells are lysed using a mix of cationic surfactant, glacial acetic acid, and sodium chloride. Two ml of the lysed cell suspension from each well is added to 8 ml of diluent. The number of nuclei is determined using a Coulter counter (ZBI model), and a percent growth for each drug concentration is calculated. From this, an IDso (molar concentration of compound that results in 50% inhibition of growth) is determined.

Assay [2] deals with Streptococcus faecalis 05045. Description: in vitro antibacterial/antifungal (ABF) agar-disk diffusion assay. The assay is classed as cell-based. The settings on record: Enterococcus faecalis, Conc. .5 mg/ml, AM-09 medium, read-out: ABF Zone Diameter (Conc. in mg/ml) S. Fae-calis. As to the method: (§1) Still another test protocol is the in vitro antibacterial/antifungal (ABF) test. Compounds are tested for antimicrobial activity in an agar-disk diffusion assay, a standard microbiological technique for testing antibiotics. After incubation of each culture with a test compound, a zone of inhibition is determined. The zone diameter (mm) of active compounds ranges from a minimum of 13.5 mm to as high as 60 mm, with a greater diameter reflecting higher activity. For convenience, values are reported for two gram-negative bacteria (Aerobacter aerogenes 0126 and Escherichia coli 04863), two gram-positive bacteria (Bacillus subtilis 04555 and Streptococcus faecalis 05045 utilizing AM-09 medium), and one mycelial fungus (Penicillium avellaneum M2988).

The subject of assay [3] is Penicillium avellaneum M2988. The description is as above. To be noted: Hamigera avellanea, Conc. 3 mg/ml, read-out: ABF Zone Diameter (Conc. in mg/ml) P. Avell-aneum. Format: cell-based. On the procedure: as §1
A further assay relates to Bacillus subtilis 04555. Described as above. The settings on record: Conc. .5 mg/ml, read-out: ABF Zone Diameter (Conc. in mg/ml) B. Sub-tilis. The assay is classed as cell-based. On the procedure:
as §1

Turning to `CCN(CC)CCn1nc2c3c(c([N+](=O)[O-])ccc31)Oc1ccccc1-2` [Example 1, N,N-Diethyl-5-nitro-2H-[1] benzopyrano[4,3,2-cd]indazole-2-ethanamine], the IC50 in the assay with L1210 cells is 1900 nM; with HCT-8 cells, 1000 nM. Besides, in assay [1] (Dose 100 mg/kg intraperitoneally once daily for five days), the response vs control in vivo at 100 mg/kg was 138%. Also, in assay [1] (Dose 200 mg/kg intraperitoneally once daily for five days), the response vs control in vivo at 200 mg/kg is 211%. Besides, the figures for the zone of inhibition at 500 µg/mL (in assay [2]; in the assay on Bacillus subtilis 04555) were 15 mm and 14 mm, respectively. The zone of inhibition at 3000 µg/mL in assay [3] stood at 0 mm.

For the origin of these results see patent EP0172632B1, “Benzopyrano[4,3,2-cd]indazole compounds, processes for their production and pharmaceutical compositions comprising the compounds” (WARNER-LAMBERT COMPANY, priority 1984, dated 1986).
